For one assay, the system named is BB/W diabetic rats. The assay is described as follows: Progression of neuropathic pain in BB/W model (withdrawal latency). The assay is classed as in vivo. The note with it: 10 mg/kg i.p. daily; vs diabetic vehicle-treated rats, from 4 weeks through six months of treatment, FIG. 11. An excerpt: In vivo Assay of NAALADase Inhibitors on Progression of Neuropathic Pain in BB/W Models
Male BB/W rats (BRI, Mass) spontaneously develop a cell mediated autoimmune destruction of pancreatic B cells, resulting in onset of insulin-dependent (Type I) diabetes (Awata, Guberski, Endocrinology (1995) 136(12):5731–5). […] This renders them valuable for experimental trials of new compounds for future treatments of this major disorder. In the present study, Compound A and Compound D were examined for their ability to alter the progression of diabetic neuropathy. The rats received daily injection of Compound A or Compound D (10 mg/kg i.p.) or vehicle, starting at the onset of diabetes (hyperglycemia) and up to 6 months thereafter. Another group of non-diabetic rats also receiving vehicle were tested. All animals were continuously monitored for body weight, urine volume, blood sugar and glycated haemoglobin. In the first month of the study, all animals were tested for thermal nociception in a Hargreaves apparatus, weekly. After the first month this was done biweekly and then monthly. The testing consists of directing an infrared heat source onto the dorsal surface of the rat hindpaw and noting the time taken for the animal to remove its paw (see Hargreaves et al., J. Biol. Chem. (1988) 263(36):19392–7 for a description of the experimental method). […]

For the next assay, the system named is STZ-diabetic rats. The assay is described as follows: Neuropathic pain in STZ model (Hargreaves thermal nociception). The assay is classed as in vivo, Sprague-Dawley rats. The note with it: 10 mg/kg i.p. daily, started 45 days post-STZ. The method, then:
In vivo Assay of NAALADase Inhibitors on Neuropathic Pain in STZ Model
Male Sprague-Dawley rats (200–225 g) were rendered diabetic by intravenous administration of streptozotocin (“STZ”, 70 mg/kg in phosphate buffered saline). Diabetic animals were divided into five groups: one group receiving Compound A (10 mg/kg or 1 mg/kg), Compound D (10 mg/kg or 1 mg/kg) or vehicle. Another group of animals (non-STZ treated) served as non-diabetic controls. Drug/vehicle treatment was started in diabetic animals 45 days post-STZ administration. STZ-induced diabetic rats were tested for sensitivity to a heat source as soon as blood glucose levels rose to 320 mg/dl or above (30 days post STZ). The rats were then acclimated to a Hargreaves apparatus and thermal nociception was monitored using an infrared heat source directed into the dorsal surface of the hindpaw, and the time taken for the animal to remove its paw noted to the nearest 0.1 seconds (see Hargreaves et al., J. Biol. Chem. (1988) 263(36):19392–7 for a description of the experimental method). The intensity of the beam source was adjusted such that the mean latency for control animals (non-STZ treated) was approximately 10 seconds. Each animal was tested 8 times and the mean difference score (between mean non-diabetic control latency and mean diabetic latency) are graphically presented in FIGS. 7A and 7B.

As for `O=C(O)CCC(CP(=O)(O)Cc1c(F)c(F)c(F)c(F)c1F)C(=O)O` (centres unmarked) [Compound A], the withdrawal latency entry in the assay on BB/W diabetic rats is reported as “longer withdrawal latencies”. Moreover, the “hyperalgesic response (withdrawal latency difference score)” value in the assay on STZ-diabetic rats is “completely reversed”.

Source of the values: US7138543B2, “Thiolalkyl benzoic acid derivatives” (Guilford Pharmaceuticals Inc., priority 2001, dated 2006).
